Here are results for ten molecules from patent US20080299592A1, “Red-Shifted Luciferase” (priority 2007, published 2008).

By LD50 is commonly meant the dose at which mortality reaches 50%.

Entries after “also recorded” stand apart in the source; their conditions may differ.

One data set concerns mice. The conditions noted are these: cited from earlier work.
The test system of another data set is HeLa cells. Description: Intracellular staining of mammalian tissue culture cells (HeLa) with bis-arsenical dyes. The class given is cell-based. As to conditions: absence of tetracysteine-tagged proteins and thiol competitors.
For data set [1], the system named is tetracysteine-tagged protein. Description: Binding/labeling of tetracysteine-tagged protein by bis-arsenical dyes (MALDI-MS). As to conditions: for binding to tetracysteine-tagged protein: MALDI-MS, canonical tetracysteine tag.
For a further data set, the target named is tetracysteine tag. As to conditions: FlAsH / tetracysteine tag; Adams et al. 2002; read-out: dissociation constant; cited from earlier work.
Data set [2] concerns tetracysteine-tagged firefly luciferase. Description: BRET from tetracysteine-tagged firefly luciferase constructs to ReAsH. As to conditions: for BRET: to ReAsH, purified TC-tagged luciferase constructs, Table 1; for efficiency of BRET (apparent): treatment with ReAsH. The class given is biochemical. An excerpt: Firefly luciferase fusion proteins with an optimized tetracysteine (TC) tag ([…]; SEQ ID NO:1) (Martin et al., Nature Biotechnology, 2005, 23:1308-14) fused onto either the amino (TCLuc1) or carboxy (TCLuc2) terminus of the luciferase protein (Promega's pGL3 (GenBank No. U47295.2)) were cloned and expressed (see list in Table 1). The proteins were expressed in E. Coli as GST fusions, purified by glutathione agarose affinity chromatography, and eluted as the TC-tagged protein by cleavage with PreScission™ protease.
The emission spectrum is sharpened, such that the maximum at 608 nm is actually higher than the 560 nm peak of luciferase (FIG. 3).
To help evaluate the role of distance and orientation on the BRET efficiency, additional N-terminal fusions of the TC tag were constructed (Table 1). […] The best-performing TCLuc1 fusion was cloned into pcDNA3.1 for expression in mammalian tissue culture cells. This construct lacks a C-terminal peroxisomal targeting sequence, and thus the expressed luciferase will localize to the cytoplasm.
In general terms: In BRET a luciferase serves as donor, and the signal depends on an acceptor being close.

For the molecule `Nc1ccc([As](=O)(O)O)cc1` [arsanilic acid], the median lethal dose (LD50) with mice (mice) is reported as 248 mg/kg.

For the molecule bis-arsenical oxazine 170 [As2Ox170], in the data set with HeLa cells, the intracellular staining result was “intracellular staining; also recorded: highly fluorescent within cells”. Further, in data set [1], the “fluorescent labeling of tetracysteine-tagged proteins” value is on record as “fails to fluorescently label” and the “binding to tetracysteine-tagged protein” value is “fails to bind; also recorded: lack of binding”.

Regarding FlAsH [reference compound], the intracellular staining entry in the data set with HeLa cells is reported as “bright intracellular staining”. Moreover, the Kd on tetracysteine tag was approximately 4 pM. For the same molecule, the “binding to tetracysteine-tagged protein” value in data set [1] is “binding”.

Take `CN(Cc1cnc2nc(N)nc(N)c2n1)c1ccc(C(=O)N[C@@H](CCC(=O)O)C(=O)O)cc1` [methotrexate]: the “LD50 relative to melarsonyl” value with mice (mouse, in vivo) is listed as “two-fold lower LD50 than melarsonyl”.

On to `O=c1ccc2nc3ccc(O)c([As]4SCCS4)c3oc-2c1[As]1SCCS1` [ReAsH, reference compound], for which, in the data set on HeLa cells, the intracellular staining entry was “bright intracellular staining”. Also, the “binding to tetracysteine-tagged protein” value in data set [1] is “binding”.

B1: TCLuc2: Firefly luciferase with optimized tetracysteine tag fused at the carboxy terminus, SEQ ID NO:3 (protein)
chain: GPLGSMEDAKNIKKGPAPFYPLEDGTAGEQLHKAMKRYALVPGTIAFTDAHIEVDITYAEYFEMSVRLAEAMKRYGLNTNHRIVVCSENSLQFFMPVLGALFIGVAVAPANDIYNERELLNSMGISQPTVVFVSKKGLQKILNVQKKLPIIQKIIIMDSKTDYQGFQSMYTFVTSHLPPGFNEYDFVPESFDRDKTIALIMNSSGSTGLPKGVALPHRTACVRFSHARDPIFGNQIIPDTAILSVVPFHHGFGMFTTLGYLICGFRVVLMYRFEEELFLRSLQDYKIQSALLVPTLFSFFAKSTLIDKYDLSNLHEIASGGAPLSKEVGEAVAKRFHLPGIRQGYGLTETTSAILITPEGDDKPGAVGKVVPFFEAKVVDLDTGKTLGVNQRGELCVRGPMIMSGYVNNPEATNALIDKDGWLHSGDIAYWDEDEHFFIVDRLKSLIKYKGYQVAPAELESILLQHPNIFDAGVAGLPDDDAGELPAAVVVLEHGKTMTEKEIVDYVASQVTTAKKLRGGVVFVDEVPKGLTGKLDARKIREILIKAKKGGKIAVFLNCCPGCCMEP
Turning to B1, in data set [2], the BRET was approximately 50% and the “efficiency of BRET (apparent)” value is “about 50%”.

B2: TCLuc3: N-terminal TC-tagged luciferase with flexible (Gly-Ser)3 repeat spacer, SEQ ID NO:4 (protein)
chain: GPLGSFLNCCPGCCMEPGSGSGSGSMEDAKNIKKGPAPFYPLEDGTAGEQLHKAMKRYALVPGTIAFTDAHIEVDITYAEYFEMSVRLAEAMKRYGLNTNHRIVVCSENSLQFFMPVLGALFIGVAVAPANDIYNERELLNSMGISQPTVVFVSKKGLQKILNVQKKLPIIQKIIIMDSKTDYQGFQSMYTFVTSHLPPGFNEYDFVPESFDRDKTIALIMNSSGSTGLPKGVALPHRTACVRFSHARDPIFGNQIIPDTAILSVVPFHHGFGMFTTLGYLICGFRVVLMYRFEEELFLRSLQDYKIQSALLVPTLFSFFAKSTLIDKYDLSNLHEIASGGAPLSKEVGEAVAKRFHLPGIRQGYGLTETTSAILITPEGDDKPGAVGKVVPFFEAKVVDLDTGKTLGVNQRGELCVRGPMIMSGYVNNPEATNALIDKDGWLHSGDIAYWDEDEHFFIVDRLKSLIKYKGYQVAPAELESILLQHPNIFDAGVAGLPDDDAGELPAAVVVLEHGKTMTEKEIVDYVASQVTTAKKLRGGVVFVDEVPKGLTGKLDARKIREILIKAKKGGKIAV
As for B2, in data set [2], the BRET was approximately 50% and the “efficiency of BRET (apparent)” value is reported as “about 50%”.

B3: TCLuc4: N-terminal TC-tagged luciferase with truncated amino acids between tag and luciferase, SEQ ID NO:5 (protein)
chain: GPLGSFLNCCPGCCMEDAKNIKKGPAPFYPLEDGTAGEQLHKAMKRYALVPGTIAFTDAHIEVDITYAEYFEMSVRLAEAMKRYGLNTNHRIVVCSENSLQFFMPVLGALFIGVAVAPANDIYNERELLNSMGISQPTVVFVSKKGLQKILNVQKKLPIIQKIIIMDSKTDYQGFQSMYTFVTSHLPPGFNEYDFVPESFDRDKTIALIMNSSGSTGLPKGVALPHRTACVRFSHARDPIFGNQIIPDTAILSVVPFHHGFGMFTTLGYLICGFRVVLMYRFEEELFLRSLQDYKIQSALLVPTLFSFFAKSTLIDKYDLSNLHEIASGGAPLSKEVGEAVAKRFHLPGIRQGYGLTETTSAILITPEGDDKPGAVGKVVPFFEAKVVDLDTGKTLGVNQRGELCVRGPMIMSGYVNNPEATNALIDKDGWLHSGDIAYWDEDEHFFIVDRLKSLIKYKGYQVAPAELESILLQHPNIFDAGVAGLPDDDAGELPAAVVVLEHGKTMTEKEIVDYVASQVTTAKKLRGGVVFVDEVPKGLTGKLDARKIREILIKAKKGGKIAV
For the molecule B3, in data set [2], the BRET entry is reported as “quenches” and the “efficiency of BRET (apparent)” value is given as “quenching of luciferase emission”.

B4: TCLuc5: N-terminal TC-tagged Δ2-luciferase, truncated, SEQ ID NO:6 (protein)
chain: GPLGSFLNCCPGCCDAKNIKKGPAPFYPLEDGTAGEQLHKAMKRYALVPGTIAFTDAHIEVDITYAEYFEMSVRLAEAMKRYGLNTNHRIVVCSENSLQFFMPVLGALFIGVAVAPANDIYNERELLNSMGISQPTVVFVSKKGLQKILNVQKKLPIIQKIIIMDSKTDYQGFQSMYTFVTSHLPPGFNEYDFVPESFDRDKTIALIMNSSGSTGLPKGVALPHRTACVRFSHARDPIFGNQIIPDTAILSVVPFHHGFGMFTTLGYLICGFRVVLMYRFEEELFLRSLQDYKIQSALLVPTLFSFFAKSTLIDKYDLSNLHEIASGGAPLSKEVGEAVAKRFHLPGIRQGYGLTETTSAILITPEGDDKPGAVGKVVPFFEAKVVDLDTGKTLGVNQRGELCVRGPMIMSGYVNNPEATNALIDKDGWLHSGDIAYWDEDEHFFIVDRLKSLIKYKGYQVAPAELESILLQHPNIFDAGVAGLPDDDAGELPAAVVVLEHGKTMTEKEIVDYVASQVTTAKKLRGGVVFVDEVPKGLTGKLDARKIREILIKAKKGGKIAV
For the molecule B4, in data set [2], the BRET result is “inactive” and the “efficiency of BRET (apparent)” value is “complete loss of luciferase activity”.

B5: TCLuc1: Firefly luciferase with optimized tetracysteine tag fused at the amino terminus, SEQ ID NO:2 (protein)
chain: GPLGSFLNCCPGCCMEPGSMEDAKNIKKGPAPFYPLEDGTAGEQLHKAMKRYALVPGTIAFTDAHIEVDITYAEYFEMSVRLAEAMKRYGLNTNHRIVVCSENSLQFFMPVLGALFIGVAVAPANDIYNERELLNSMGISQPTVVFVSKKGLQKILNVQKKLPIIQKIIIMDSKTDYQGFQSMYTFVTSHLPPGFNEYDFVPESFDRDKTIALIMNSSGSTGLPKGVALPHRTACVRFSHARDPIFGNQIIPDTAILSVVPFHHGFGMFTTLGYLICGFRVVLMYRFEEELFLRSLQDYKIQSALLVPTLFSFFAKSTLIDKYDLSNLHEIASGGAPLSKEVGEAVAKRFHLPGIRQGYGLTETTSAILITPEGDDKPGAVGKVVPFFEAKVVDLDTGKTLGVNQRGELCVRGPMIMSGYVNNPEATNALIDKDGWLHSGDIAYWDEDEHFFIVDRLKSLIKYKGYQVAPAELESILLQHPNIFDAGVAGLPDDDAGELPAAVVVLEHGKTMTEKEIVDYVASQVTTAKKLRGGVVFVDEVPKGLTGKLDARKIREILIKAKKGGKIAV
As to B5, in data set [2], the BRET was approximately 80% and the “efficiency of BRET (apparent)” value is reported as “about 80%”.
